Results as given in US11840528B2 (Hoffmann-La Roche Inc., priority 2018, dated 2023).

Columns and labels:
h-GABA-A α5β3γ2 [1] = target: T1, h-GABA-A α5β3γ2 (Homo sapiens, UniProt P18507+P31644); assay: [3H]flumazenil competition binding assay, membranes of HEK293 cells expressing GABAA receptors; settings: displacement of [3H]-Flumazenil 0.5 nM, HEK293 cells expressing human receptors, mean of two determinations; Table 1
Procedure, shortened: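 Membranes from HEK293 cells transiently expressing human α5β3γ2 GABAA receptors, in Krebs-tris buffer pH 7.5, competed against [3H]flumazenil for 1 hour at 4° C to equilibrium. Bound radioactivity collected on GF/C filters and counted by liquid scintillation; Ki values are means of two determinations.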

h-GABA-A α5β3γ2 [2] = target: T1, h-GABA-A α5β3γ2; assay: Two-electrode voltage clamp electrophysiology in Xenopus laevis oocytes expressing GABAA receptors, modulation of GABA EC20 current; type: cell-based; parameters: host or cells: Xenopus laevis oocytes micro-injected with RNA transcripts of the subunits; settings: Table 1; for Efficacy (GABA) %: % modulation of GABA EC20 = 100*(Fold increase-1); for Fold increase h-GABA-A α5β3γ2 oocyte: test compound at approx. 30 fold its Ki, GABA at EC20
Procedure, shortened: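 Human α5β3γ2 GABAA receptors were expressed in Xenopus oocytes by RNA injection, with γ2 RNA 5–10-fold higher, and recorded 3–5 days later by two-electrode voltage clamp at −80 mV at room temperature. The test compound, at about 30× its Ki, was co-applied during a second GABA EC20 pulse. Efficacy is the extremum of the point-by-point ratio to the first response, expressed as 100*(Fold increase−1).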

Row | SMILES | Ki (h-GABA-A α5β3γ2 [1]) | Efficacy (GABA) % (h-GABA-A α5β3γ2 [2]) | Fold increase h-GABA-A α5β3γ2 oocyte (h-GABA-A α5β3γ2 [2])
1 | Cc1ccc(-c2noc(C)c2Cn2ncc(N3CC(Oc4ccc(Cl)nc4)C3)cc2=O)cn1 [Example 138, 5-[3-[(6-chloro-3-pyridyl)oxy]azetidin-1-yl]-2-[[5-methyl-3-(6-methyl-3-pyridyl)isoxazol-4-yl]methyl]pyridazin-3-one] | 9.2 nM | 105% | 2.05
2 | COC1CCN(c2cnn(Cc3c(-c4ccc(C)nc4)noc3C)c(=O)c2)CC1 [Example 139, 5-(4-methoxy-1-piperidyl)-2-[[5-methyl-3-(6-methyl-3-pyridyl)isoxazol-4-yl]methyl]pyridazin-3-one] | 19.3 nM | 132% | 2.32
3 | COC1CN(c2cnn(Cc3c(-c4cc(C)on4)noc3C)c(=O)c2)C1 [Example 140, 5-(3-methoxyazetidin-1-yl)-2-[[5-methyl-3-(5-methylisoxazol-3-yl)isoxazol-4-yl]methyl]pyridazin-3-one] | 8.5 nM | 62% | 1.62
4 | Cc1cc(-c2noc(C)c2Cn2ncc(N3CC(OCC4CC4)C3)cc2=O)no1 [Example 141, 5-[3-(cyclopropylmethoxy)azetidin-1-yl]-2-[[5-methyl-3-(5-methylisoxazol-3-yl)isoxazol-4-yl]methyl]pyridazin-3-one] | 16 nM | 107% | 2.07
5 | Cc1cc(-c2noc(C)c2Cn2ncc(N3CC4(CCCO4)C3)cc2=O)no1 [Example 142, 2-[[5-methyl-3-(5-methylisoxazol-3-yl)isoxazol-4-yl]methyl]-5-(5-oxa-2-azaspiro[3.4]octan-2-yl)pyridazin-3-one] | 15.4 nM | 48% | 1.48
6 | Cc1onc(-c2ccc(Cl)cn2)c1Cn1ncc(N2CC(OCC3CC3)C2)cc1=O [Example 143, 2-((3-(5-Chloropyridin-2-yl)-5-methylisoxazol-4-yl)methyl)-5-(3-(cyclopropylmethoxy)azetidin-1-yl)pyridazin-3(2H)-one] | 3.3 nM | 68% | 1.68
7 | Cc1onc(-c2ccc(Cl)cn2)c1Cn1ncc(N2CC3(CCCO3)C2)cc1=O [Example 144, 2-((3-(5-Chloropyridin-2-yl)-5-methylisoxazol-4-yl)methyl)-5-(5-oxa-2-azaspiro[3.4]octan-2-yl)pyridazin-3(2H)-one] | 3.2 nM | 20% | 1.2
8 | COc1cccc(-c2cnn(Cc3c(-c4ccc(C)nc4)noc3C)c(=O)c2)n1 [Example 145, 5-(6-methoxy-2-pyridyl)-2-((5-methyl-3-(6-methyl-3-pyridyl)isoxazol-4-yl)methyl)pyridazin-3-one] | 26.2 nM | 119% | 2.19
9 | Cc1ccc(-c2noc(C)c2Cn2ncc(N3CC(Oc4ccnc(Cl)c4)C3)cc2=O)cn1 [Example 147, 5-[3-[(2-chloro-4-pyridyl)oxy]azetidin-1-yl]-2-[[5-methyl-3-(6-methyl-3-pyridyl)isoxazol-4-yl]methyl]pyridazin-3-one] | 12 nM | 170% | 2.7
10 | Cc1ccc(-c2noc(C)c2Cn2ncc(-c3cncc(Cl)c3)cc2=O)cn1 [Example 148, 5-(5-chloro-3-pyridyl)-2-((5-methyl-3-(6-methyl-3-pyridyl)isoxazol-4-yl)methyl)pyridazin-3-one] | 8.4 nM | 248% | 3.48
11 | Cc1ccc(-c2noc(C)c2Cn2ncc(-c3ccc(OC(F)F)nc3)cc2=O)cn1 [Example 149, 5-(6-(difluoromethoxy)pyridin-3-yl)-2-((5-methyl-3-(6-methylpyridin-3-yl)isoxazol-4-yl)methyl)pyridazin-3(2H)-one] | 20.2 nM | 89% | 1.89
12 | Cc1ccc(-c2noc(C)c2Cn2ncc(N3CC(OC(C)(C)C)C3)cc2=O)cn1 [Example 150, 5-(3-tert-butoxyazetidin-1-yl)-2-[[5-methyl-3-(6-methyl-3-pyridyl)isoxazol-4-yl]methyl]pyridazin-3-one] | 30.4 nM | 85% | 1.85
13 | CCOc1ccc(-c2cnn(Cc3c(-c4ccc(C)nc4)noc3C)c(=O)c2)cn1 [Example 151, 5-(6-ethoxypyridin-3-yl)-2-((5-methyl-3-(6-methylpyridin-3-yl)isoxazol-4-yl)methyl)pyridazin-3(2H)-one] | 27.2 nM | 119% | 2.19
14 | Cc1ccc(-c2noc(C)c2Cn2ncc(-c3cnn(C4CC4)c3)cc2=O)cn1 [Example 152, 5-(1-cyclopropyl-1H-pyrazol-4-yl)-2-((5-methyl-3-(6-methylpyridin-3-yl)isoxazol-4-yl)methyl)pyridazin-3(2H)-one] | 28.7 nM | 116% | 2.16
15 | Cc1ccc(-c2noc(C)c2Cn2ncc(-c3cnn(CC(F)F)c3)cc2=O)cn1 [Example 153, 5-(1-(2,2-difluoroethyl)-1H-pyrazol-4-yl)-2-((5-methyl-3-(6-methylpyridin-3-yl)isoxazol-4-yl)methyl)pyridazin-3(2H)-one] | 24.2 nM | 166% | 2.66
16 | Cc1ccc(-c2noc(C)c2Cn2ncc(-c3cnn(C(F)F)c3)cc2=O)cn1 [Example 154, 5-(1-(difluoromethyl)-1H-pyrazol-4-yl)-2-((5-methyl-3-(6-methylpyridin-3-yl)isoxazol-4-yl)methyl)pyridazin-3(2H)-one] | 23.7 nM | 244% | 3.44
17 | CCn1cc(-c2cnn(Cc3c(-c4ccc(C)nc4)noc3C)c(=O)c2)cn1 [Example 155, 5-(1-ethyl-1H-pyrazol-4-yl)-2-((5-methyl-3-(6-methylpyridin-3-yl)isoxazol-4-yl)methyl)pyridazin-3(2H)-one] | 21.6 nM | 133% | 2.33
18 | Cc1ccc(-c2noc(C)c2Cn2ncc(-c3ccnc(N(C)C)c3)cc2=O)cn1 [Example 156, 5-(2-(dimethylamino)pyridin-4-yl)-2-((5-methyl-3-(6-methylpyridin-3-yl)isoxazol-4-yl)methyl)pyridazin-3(2H)-one] | 2.6 nM | 66% | 1.66
19 | Cc1ccc(-c2noc(C)c2Cn2ncc(-c3cnn(CC4CC4)c3)cc2=O)cn1 [Example 157, 5-(1-(cyclopropylmethyl)-1H-pyrazol-4-yl)-2-((5-methyl-3-(6-methylpyridin-3-yl)isoxazol-4-yl)methyl)pyridazin-3(2H)-one] | 22.7 nM | 86% | 1.86
20 | Cc1ccc(-c2noc(C)c2Cn2ncc(N3CC(OCC(F)(F)F)C3)cc2=O)cn1 [Example 158, 2-[[5-methyl-3-(6-methyl-3-pyridyl)isoxazol-4-yl]methyl]-5-[3-(2,2,2-trifluoroethoxy)azetidin-1-yl]pyridazin-3-one] | 9.6 nM | 96% | 1.96
21 | COC1CN(c2cnn(Cc3c(-c4ccc(Cl)cc4)noc3C)c(=O)c2)C1 [Example 160, 2-[[3-(4-chlorophenyl)-5-methyl-isoxazol-4-yl]methyl]-5-(3-methoxyazetidin-1-yl)pyridazin-3-one] | 7.4 nM | 43% | 1.43
22 | CCOC1CN(c2cnn(Cc3c(-c4ccc(Cl)cc4)noc3C)c(=O)c2)C1 [Example 161, 2-[[3-(4-chlorophenyl)-5-methyl-isoxazol-4-yl]methyl]-5-(3-ethoxyazetidin-1-yl)pyridazin-3-one] | 7.8 nM | 56% | 1.56
23 | Cc1onc(-c2ccc(Cl)cc2)c1Cn1ncc(N2CC3(CCCO3)C2)cc1=O [Example 162, 2-[[3-(4-chlorophenyl)-5-methyl-isoxazol-4-yl]methyl]-5-(5-oxa-2-azaspiro[3.4]octan-2-yl)pyridazin-3-one] | 18.8 nM | 40% | 1.4
24 | Cc1ccc(-c2noc(C)c2Cn2ncc(-c3ccnc(N4CCNCC4)c3)cc2=O)cn1 [Example 163, 2-((5-methyl-3-(6-methylpyridin-3-yl)isoxazol-4-yl)methyl)-5-(2-(piperazin-1-yl)pyridin-4-yl)pyridazin-3(2H)-one] | 11.4 nM | 165% | 2.65
25 | Cc1ccc(-c2noc(C)c2Cn2ncc(N3CCC(c4ccnn4C)CC3)cc2=O)cn1 [Example 166, 2-[[5-methyl-3-(6-methyl-3-pyridyl)isoxazol-4-yl]methyl]-5-[4-(2-methylpyrazol-3-yl)-1-piperidyl]pyridazin-3-one] | 1.7 nM | 149% | 2.49
26 | CCn1nccc1C1CCN(c2cnn(Cc3c(-c4ccc(C)nc4)noc3C)c(=O)c2)CC1 [Example 167, 5-[4-(2-ethylpyrazol-3-yl)-1-piperidyl]-2-[[5-methyl-3-(6-methyl-3-pyridyl)isoxazol-4-yl]methyl]pyridazin-3-one] | 2.2 nM | 195% | 2.95
